These results are taken from US20190030053A1, “COMPOSITION FOR INCREASING EXPRESSION OF PGC-1alpha” (BENEBIOSIS CO., LTD., priority 2016, published 2019).

Structures are written as SMILES.

Assay [1] deals with Huntington's disease model mice (R6/2). As to the kind of experiment: Rotarod travel test in Huntington's disease models. The conditions noted are these: R6/2 mice, oral 0.1 mg/kg/day. The assay is classed as in vivo, mouse. From the text: In order to investigate the changes in gene expression and cognitive ability by the treatment with SL (3′-SL & 6′-SL) compositions in Huntington's brain disease model, 4-week-old mice were purchased from Central Lab Animal (Korea). Water was freely accessible, and a commercially available pellet feed (Dooyeul Biotech, Korea) was given for one week. At 5 weeks of age, the mice were divided into three groups (composed of eight mice for each group): Eight 5-week-old male c57/BL6 mice (normal mice; initial body weight, average 25.3±4.3 g) treated with a normal diet were used for a control group. […]
In addition, the behavior improvement was evaluated through the rotarod travel time changes of the (Huntington's disease model) group, (Huntington's disease model+3′-SL) group, and (Huntington's disease model+6′-SL) group, compared with the normal mouse with a normal diet. […] The rotarod travel time was measured by using a rotarod device (rod accelerating at a revolution speed of 4-40 rpm through 3 minutes, Jungdo Instruments, Korea). After 4-week-old mice were practiced on the rotarod test, the rotarod test was performed from 5 weeks of age, and the mean time to fall was measured. […]

In assay [2] the test system is mouse aortic smooth muscle cells (MASMs). The assay can be described thus: Intracellular H2O2 (ROS values, H2DCFDA) in MASMs of aging stimulation model mice. Format: cell-based. The conditions noted are these: MASMs from aging stimulation model mice; SL added to culture liquid. The procedure:
In addition, for cell-level tests, mouse aortic smooth muscle cells (MASMs) were isolated from the control group fed with a high-fat diet (Rodent Diet with 60 kcal % fat) without SL administration (Griendling et al., 1991), and the SL (3′-SL & 6′-SL) compositions were added to the culture liquid, followed by incubation. For intracellular H2O2 measurement (ROS values), the cells were cultured in 12-well culture plates immersed in 0.1% bovin calf serum. The intracellular ROS values were measured using H2DCFDA. For assay, the cells were cultured together with H2DCFDA in HBSS buffer for 30 minutes. The cells were trypsinized, washed, and lysed in HBSS. The fluorescence values were measured immediately by a CytoFluor plate reader (FIG. 17a).
In FIGS. 17a and 17b, MASMs were extracted from the aging stimulation model mouse control group, and the SL (3′-SL & 6′-SL) compositions were added to the culture liquid to conduct comparison.
FIGS. 17a and 17b show the measurement results of intercellular H2O2 (ROS values) (FIG. 17a) and the measurement results of mitochondrial superoxide production (FIG. 17b).

Assay [3] relates to PGC-1α and related genes. The assay can be described thus: Gene expression by body parts in skin test models. Format: in vivo, mouse. The conditions noted are these: HRM2 mice, oral 0.1 mg/kg/day, 10 weeks; organs and muscles. From the text: In order to investigate the gene expression chages by body parts by the treatment with the SL (3′-SL & 6′-SL) compositions in skin test models, 6-week-old male skin test model (HRM2) mice (hairless appearance containing melanin) were randomly grouped into three different dietary treatment groups (8 animals per group, a total of 24 animals) below, and the diets (AIN-76A, Dyets, USA) were maintained for 10 weeks. […]
The gene expression changes by administration of the SL (3′-SL & 6′-SL) compositions were quantitatively compared for eight main organs (heart, hippocampus, brain, spinal cord, lung, liver, spleen, and kidney), three skeletal muscles (soleus muscle, quadriceps femoris muscle, and gastrocnemius muscle), and the like. RNA was extracted by TRIzol agent (Invitrogen). cDNA was synthesized by using RNA, which has been extracted as above and quantified, and a reverse transcription system (Promega, USA). The expression patterns of PGC-1α and related genes were measured by using pre-designed primers and probes (Applied Biosystems; PGC-1α, Mm00447181_m1, GAPDH, and Mm99999915_q1) for the synthesized cDNA and analysis targets (Fndc5, PGC-1α, Erra, UCP1, SOD2, and GPX1). […]

For the compound `CC(=O)N[C@H]1[C@H]([C@H](O)[C@H](O)CO)O[C@@](O[C@H]2[C@@H](O)[C@@H](CO)O[C@@H](O[C@H]3[C@H](O)[C@@H](O)C(O)O[C@@H]3CO)[C@@H]2O)(C(=O)O)C[C@@H]1O` (stereo partly drawn) [3′-SL, α-NeuNAc-(2→3)-β-D-Gal-(1→4)-D-Glc], in assay [1], the “rotarod travel time vs SL non-administration group” value is recorded as “less than that of 6′-SL”. The “intracellular H2O2 (ROS values)” value in assay [2] was “dropped the ROS values”. For the same compound, the “expression levels of analysis targets (Fndc5, PGC-1α, Erra, UCP1, SOD2, GPX1) vs negative control” value in assay [3] is given as “relatively low compared with 6′-SL”.

In the case of `CC(=O)N[C@H]1[C@H]([C@H](O)[C@H](O)CO)O[C@@](OC[C@H]2O[C@@H](O[C@H]3[C@H](O)[C@@H](O)[C@H](O)O[C@@H]3CO)[C@H](O)[C@@H](O)[C@H]2O)(C(=O)O)C[C@@H]1O` [6′-SL, α-NeuNAc-(2→6)-β-D-Gal-(1→4)-D-Glc], in assay [1], the “rotarod travel time vs SL non-administration group” value was “increased”. The “intracellular H2O2 (ROS values)” value in assay [2] is listed as “dropped the ROS values”. Further, in assay [3], the “expression levels of analysis targets (Fndc5, PGC-1α, Erra, UCP1, SOD2, GPX1) vs negative control” value is “very excellent”.
